Here are results for 41 compounds from US11279691B2, “Substituted pyridine and pyrazine compounds as PDE4 inhibitors” (Dart Neuroscience LLC, priority 2013, dated 2022).

Where only a bound is given, the exact number is not on record here.

The target of the experiment is T1, PDE4D3 (Homo sapiens, UniProt Q08499).
T1 construct: GST
T1 sequence (Q08499 1-673 isoform Q08499-2): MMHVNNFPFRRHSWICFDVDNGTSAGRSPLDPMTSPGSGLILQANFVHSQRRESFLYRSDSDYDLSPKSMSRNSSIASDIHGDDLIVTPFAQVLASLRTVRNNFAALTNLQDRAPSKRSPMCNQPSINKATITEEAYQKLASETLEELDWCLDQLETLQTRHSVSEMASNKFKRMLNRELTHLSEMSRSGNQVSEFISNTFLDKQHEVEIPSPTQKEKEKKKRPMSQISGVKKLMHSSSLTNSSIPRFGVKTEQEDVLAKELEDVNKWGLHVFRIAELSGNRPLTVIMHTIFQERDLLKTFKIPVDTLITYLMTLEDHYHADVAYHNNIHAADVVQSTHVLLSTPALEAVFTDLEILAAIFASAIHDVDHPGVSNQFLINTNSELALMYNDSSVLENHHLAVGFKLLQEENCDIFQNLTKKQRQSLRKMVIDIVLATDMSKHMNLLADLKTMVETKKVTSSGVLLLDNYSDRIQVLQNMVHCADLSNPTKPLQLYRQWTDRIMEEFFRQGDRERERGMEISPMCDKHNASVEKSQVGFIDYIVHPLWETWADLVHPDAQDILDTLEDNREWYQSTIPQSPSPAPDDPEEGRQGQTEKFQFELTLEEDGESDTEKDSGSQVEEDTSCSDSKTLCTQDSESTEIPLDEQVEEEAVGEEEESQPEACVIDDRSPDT
It counts as biochemical. As to conditions: GST-tagged PDE4D3, 200 nM FAM-cAMP, 11-point dose-response; read-out: PD4d3 pEC50 (converted).
In the case of `COc1ncc(Cn2nc(CO)cc2C)cc1-c1ccnc(OC(F)F)c1` [Example 316, [1-({5-[2-(Difluoromethoxy)pyridin-4-yl]-6-methoxypyridin-3-yl}methyl)-5-methyl-1H-pyrazol-3-yl]methanol], the EC50 was 0.1 to 1 µM.

As for `N#CCc1ncc(Cc2cnc(OCC(F)F)c(-c3cccc(Cl)c3)c2)cn1` [Example 348, 2-(5-{[5-(3-Chlorophenyl)-6-(2,2-difluoroethoxy)pyridin-3-yl]methyl}pyrimidin-2-yl)acetonitrile], the EC50 is less than 0.1 µM.

Regarding `CCCOc1ncc(Cc2cnc(N)nc2)cc1-c1ccc(F)c(F)c1` [Example 278, 5-((5-(3,4-Difluorophenyl)-6-propoxypyridin-3-yl)methyl)pyrimidin-2-amine], the EC50 is less than 0.1 µM.

For `COc1ncc(Cc2cnc(N)nc2)cc1-c1ccc(F)cc1` [Example 360, 5-{[5-(4-Fluorophenyl)-6-methoxypyridin-3-yl]methyl}pyrimidin-2-amine], the EC50 is less than 0.1 µM.

With `COc1ncc(Cc2ccc(CC(N)=O)cc2)cc1-c1ccc(F)cc1` [Example 364, 2-(4-{[5-(4-Fluorophenyl)-6-methoxypyridin-3-yl]methyl}phenyl)acetamide], the EC50 is less than 0.1 µM.

As for `COc1ncc(Cc2ccc(CC(N)=O)cc2)cc1-c1ccc(Cl)c(F)c1` [Example 365, 2-(4-{[5-(4-Chloro-3-fluorophenyl)-6-methoxypyridin-3-yl]methyl}phenyl)acetamide], the EC50 was less than 0.1 µM.

As for `CCOc1cccc(-c2cc(Cn3cnc(CO)n3)cnc2OCC)c1` [Example 334, (1-{[6-Ethoxy-5-(3-ethoxyphenyl)pyridin-3-yl]methyl}-1H-1,2,4-triazol-3-yl)methanol], the EC50 is 0.1 to 1 µM.

For the compound `CCOc1ncc(Cn2cnc(C(F)(F)F)n2)cc1-c1cccc(OC(F)F)c1` [Example 162, 3-[3-(Difluoromethoxy)phenyl]-2-ethoxy-5-{[3-(trifluoromethyl)-1H-1,2,4-triazol-1-yl]methyl}pyridine], the EC50 was 0.1 to 1 µM.

Regarding `CCOc1ncc(Cc2cnc(N)nc2)cc1-c1ccc(F)c(Cl)c1` [Example 279, 5-((5-(3-Chloro-4-fluorophenyl)-6-ethoxypyridin-3-yl)methyl)pyrimidin-2-amine], the EC50 was less than 0.1 µM.

For `CCOc1ncc(Cn2nc(N)cc2C)cc1-c1cccc(Cl)c1` [Example 317, 1-{[5-(3-Chlorophenyl)-6-ethoxypyridin-3-yl]methyl}-5-methyl-1H-pyrazol-3-amine], the EC50 was 0.1 to 1 µM.

Consider `COc1ncc(Cc2cnc(NCCO)cn2)cc1-c1cccc(Cl)c1` [Example 290, 2-((5-((5-(3-Chlorophenyl)-6-methoxypyridin-3-yl)methyl)pyrazin-2-yl)amino) ethanol], for which the EC50 was less than 0.1 µM.

`CCOc1ncc(Cn2nnnc2C)cc1-c1ccc(F)c(Cl)c1` [Example 398, 3-(3-Chloro-4-fluorophenyl)-2-ethoxy-5-[(5-methyl-1H-1,2,3,4-tetrazol-1-yl)methyl]pyridine]: the EC50 is less than 0.1 µM.

For `COc1ncc(Cc2cnnc(C)c2)cc1-c1cccc(Cl)c1` [Example 305, 5-{[5-(3-Chlorophenyl)-6-methoxypyridin-3-yl]methyl}-3-methylpyridazine], the EC50 was 0.1 to 1 µM.

Consider `COc1ncc(Cc2cnc(N)cn2)cc1-c1ccc(Cl)c(F)c1` [Example 379, 5-{[5-(4-Chloro-3-fluorophenyl)-6-methoxypyridin-3-yl]methyl}pyrazin-2-amine], for which the EC50 was 0.1 to 1 µM.

In the case of `CCOc1ncc(Cn2cnc(CO)n2)cc1-c1cccc(OC)c1` [Example 327, (1-{[6-Ethoxy-5-(3-methoxyphenyl)pyridin-3-yl]methyl}-1H-1,2,4-triazol-3-yl)methanol], the EC50 is less than 0.1 µM.

Take `COc1ncc(Cc2cnc(CO)cn2)cc1-c1cccc(Cl)c1` [Example 376, (5-{[5-(3-Chlorophenyl)-6-methoxypyridin-3-yl]methyl}pyrazin-2-yl)methanol]: the EC50 is less than 0.1 µM.

Take `COc1ncc(Cc2cnc(CC#N)nc2)cc1-c1ccc(F)c(F)c1` [Example 358, 2-(5-{[5-(3,4-Difluorophenyl)-6-methoxypyridin-3-yl]methyl}pyrimidin-2-yl)acetonitrile]: the EC50 was less than 0.1 µM.

`CCOc1ncc(Cn2cnc(CO)n2)cc1-c1ccc(F)c(Cl)c1` [Example 337, (1-{[5-(3-Chloro-4-fluorophenyl)-6-ethoxypyridin-3-yl]methyl}-1H-1,2,4-triazol-3-yl)methanol]: the EC50 is less than 0.1 µM.

Take `COc1ncc(Cc2cnc(NCCO)nc2)cc1-c1ccc(F)cc1` [Example 283, 2-[(5-{[5-(4-Fluorophenyl)-6-methoxypyridin-3-yl]methyl}pyrimidin-2-yl)amino]ethan-1-ol]: the EC50 was 0.1 to 1 µM.

Take `COc1ncc(Cc2cnc(NCCO)nc2)cc1-c1cccc(Cl)c1` [Example 391, 2-[(5-{[5-(3-Chlorophenyl)-6-methoxypyridin-3-yl]methyl}pyrimidin-2-yl)amino]ethan-1-ol]: the EC50 was less than 0.1 µM.

On to `COc1ncc(Cc2cnc(N3CC(O)C3)nc2)cc1-c1cccc(Cl)c1` [Example 390, 1-(5-{[5-(3-Chlorophenyl)-6-methoxypyridin-3-yl]methyl}pyrimidin-2-yl)azetidin-3-ol], for which the EC50 was 0.1 to 1 µM.

Take `COc1ncc(Cc2cnc(N3CCOCC3)nc2)cc1-c1cccc(Cl)c1` [Example 292]: the EC50 is 1 to 10 µM.

Regarding `COc1ncc(Cn2cnc(CO)n2)cc1-c1cccc(Cl)c1` [Example 336, (1-{[5-(3-Chlorophenyl)-6-methoxypyridin-3-yl]methyl}-1H-1,2,4-triazol-3-yl)methanol], the EC50 is less than 0.1 µM.

On to `CCOc1ncc(Cn2c(CO)cnc2C)cc1-c1cccc(Cl)c1` [Example 319, (1-{[5-(3-Chlorophenyl)-6-ethoxypyridin-3-yl]methyl}-2-methyl-1H-imidazol-5-yl)methanol], for which the EC50 is 0.1 to 1 µM.

Take `COc1ncc(Cc2ccc(CC(N)=O)cc2)cc1-c1ccc(F)c(F)c1` [Example 363, 2-(4-{[5-(3,4-Difluorophenyl)-6-methoxypyridin-3-yl]methyl}phenyl)acetamide]: the EC50 was less than 0.1 µM.

Turning to `COc1ncc(Cc2cnc(C(N)=O)nc2)cc1-c1ccc(F)c(F)c1` [Example 373, 5-{[5-(3,4-Difluorophenyl)-6-methoxypyridin-3-yl]methyl}pyrimidine-2-carboxamide], the EC50 is 0.1 to 1 µM.

Regarding `COc1ncc(Cc2cnc(C(C)(C)C(N)=O)nc2)cc1-c1cccc(Cl)c1` [Example 367, 2-(5-{[5-(3-Chlorophenyl)-6-methoxypyridin-3-yl]methyl}pyrimidin-2-yl)-2-methylpropanamide], the EC50 is 0.1 to 1 µM.

`CCOc1ncc(Cc2cnc(NCCO)nc2)nc1-c1ccc(F)c(F)c1` [Example 294, 2-((5-((6-(3,4-difluorophenyl)-5-ethoxypyrazin-2-yl)methyl)pyrimidin-2-yl)amino)ethanol]: the EC50 was less than 0.1 µM.

As to `CCOC(=O)Cc1ccc(Cc2cnc(OC)c(-c3ccc(F)c(F)c3)c2)cc1` [Intermediate 49, Ethyl 2-(4-{[5-(3,4-difluorophenyl)-6-methoxypyridin-3-yl]methyl}phenyl)acetate], the EC50 is less than 0.1 µM.

Turning to `Nc1ncn(Cc2cnc(OC(F)F)c(-c3cccc(Cl)c3)c2)n1` [Example 218, 1-{[5-(3-Chlorophenyl)-6-(difluoromethoxy)pyridin-3-yl]methyl}-1H-1,2,4-triazol-3-amine], the EC50 was 0.1 to 1 µM.

On to `COc1ncc(Cn2nnnc2CO)cc1-c1cccc(Cl)c1` [Example 387, (1-{[5-(3-Chlorophenyl)-6-methoxypyridin-3-yl]methyl}-1H-1,2,3,4-tetrazol-5-yl)methanol], for which the EC50 was 1 to 10 µM.

For `CCOc1ncc(Cn2nnnc2C)cc1-c1ccc(F)cc1` [Example 296, 2-Ethoxy-3-(4-fluorophenyl)-5-((5-methyl-1H-tetrazol-1-yl)methyl)pyridine], the EC50 was less than 0.1 µM.

`CCOc1ncc(Cn2nnnc2C)cc1-c1ccc(F)c(F)c1` [Example 395, 3-(3,4-Difluorophenyl)-2-ethoxy-5-[(5-methyl-1H-1,2,3,4-tetrazol-1-yl)methyl]pyridine]: the EC50 is less than 0.1 µM.

On to `CCOc1ncc(Cn2cnc(C(N)=O)c2)nc1-c1cccc(Cl)c1` [Example 312, 1-{[6-(3-Chlorophenyl)-5-ethoxypyrazin-2-yl]methyl}-1H-imidazole-4-carboxamide], for which the EC50 was less than 0.1 µM.

Consider `CCOc1ncc(Cn2cnc(CO)n2)cc1-c1cccc(OC(F)(F)F)c1` [Example 333, [1-({6-Ethoxy-5-[3-(trifluoromethoxy)phenyl]pyridin-3-yl}methyl)-1H-1,2,4-triazol-3-yl]methanol], for which the EC50 is 0.1 to 1 µM.

`COc1ncc(Cn2nnc(CO)n2)cc1-c1cccc(Cl)c1` [Example 388, (2-{[5-(3-Chlorophenyl)-6-methoxypyridin-3-yl]methyl}-2H-1,2,3,4-tetrazol-5-yl)methanol]: the EC50 was 0.1 to 1 µM.

As to `Cc1nc(CO)cn1Cc1cnc(OCC(F)F)c(-c2cccc(Cl)c2)c1` [Example 406, (1-{[5-(3-Chlorophenyl)-6-(2,2-difluoroethoxy)pyridin-3-yl]methyl}-2-methyl-1H-imidazol-4-yl)methanol], the EC50 is less than 0.1 µM.

Consider `COc1ncc(Cc2ccc(CC(N)=O)cc2)cc1-c1cccc(Cl)c1` [Example 280, 2-(4-((5-(3-Chlorophenyl)-6-methoxypyridin-3-yl)methyl)phenyl)acetamide], for which the EC50 was less than 0.1 µM.

For `COc1ncc(Cc2cnc(N)nc2)cc1-c1cccc(C#N)c1` [Example 356, 3-{5-[(2-Aminopyrimidin-5-yl)methyl]-2-methoxypyridin-3-yl}benzonitrile], the EC50 was 0.1 to 1 µM.

Take `CCOc1ncc(Cn2nnnc2C)cc1-c1ccc(Cl)c(F)c1` [Example 397, 3-(4-Chloro-3-fluorophenyl)-2-ethoxy-5-[(5-methyl-1H-1,2,3,4-tetrazol-1-yl)methyl]pyridine]: the EC50 is 0.1 to 1 µM.

For `CCOc1ncc(Cn2ccc(C(N)=O)n2)nc1-c1cccc(Cl)c1` [Example 313, 1-{[6-(3-Chlorophenyl)-5-ethoxypyrazin-2-yl]methyl}-1H-pyrazole-3-carboxamide], the EC50 was 0.1 to 1 µM.
